What was measured:
[1] = test system: patient-derived tumor with BRCA1 germline mutation 185delAG; test: Patient-derived BRCA1 185delAG breast tumor xenograft growth; type: in vivo, human; settings: tumor resistant to standard chemotherapy and Compound B; Compound A 30 mg/kg/day, Compound B 50 mg/kg/day
From the text: FIGS. 6G and 6H are graphs showing the relative tumor volume (RTV) over time of tumors from breast cancer tissues from two patients, one with a 185delAG germline mutation (6G) and the other one with a 2080delA germline mutation (6H), propagated as subcutaneous implants in nude mice. Tumors were allowed to grow to a size of 5 mm when mice were randomized to treatments with either vehicle control (squares), Compound A (upside-down triangles), Compound B (triangles), or their combination (diamonds) (n=6 for each cohort, same dosing as in 6F).
All animal experiments were conducted in accordance with IACUC-approved protocols at Beth Israel Deaconess Medical Center, Boston, and at the University of Vall d'Hebron, Barcelona, Spain. […] The floxed or wild type status of Brca1, the presence of the MMTV-Cre transgene and the p53 heterozygosity were determined by PCR. […] When tumormetrics were performed, the length and width of the tumor was determined using calipers, and the tumor volume was determined (width^2×length/2). Tumor volume was used as a measure of growth and was recorded as ratio to tumor volume at diagnosis. Tumor doubling times were calculated using the functions of the best fit curves for all data points in each treatment modality. […]

[2] = test system: HCC1937 and SUM149 cells; test: Immunoblotting of BRCA1-mutant breast cancer cell lines treated with drugs; type: cell-based, human; settings: for overall poly-ADP-ribosylation (PAR): Compound B 10 μM; for activation status of EGFR/MAPK pathways: 72 hours treatment, immunoblot
From the text: The PI3K inhibitor 5-(2,6-dimorpholinopyrimidin-4-yl)-4-(trifluoromethyl)pyridin-2-amine (Compound A) was obtained through a Material Transfer Agreement with Novartis Pharmaceuticals. Olaparib (Compound B) was purchased from LC Laboratories (Woburn, Mass.) and KU-55933 was purchased from Selleck Chemicals (Houston, Tex.). BRCA1-mutant human breast cancer cell line HCC1937 was from American Type Culture Collection; # CRL-2336, and maintained in DMEM/10% FBS and SUM149 was from Division of Signal Transduction, BIDMC, maintained in Ham's F-12 with 5% fetal bovine serum (FBS), 5 μg/ml insulin, 2 μg/ml hydrocortisone, 5 μg/ml gentamicin and 2.5 μg/ml fungizone. Cell lines were authenticated by immunoblotting for BRCA1 and PTEN and tested for absence of mycoplasma.
Cells were treated with mock, 5-(2,6-dimorpholinopyrimidin-4-yl)-4-(trifluoromethyl)pyridin-2-amine (Compound A), 4-[[3-[4-(cyclopropanecarbonyl)piperazine-1-carbonyl]-4-fluorophenyl]methyl]-2H-phthalazin-1-one (Compound B), KU-55933, or the combination and lysed in cell lysis buffer (9803, Cell Signaling) as per the manufacturer's instructions. Immunoblots were performed using the Nupage System (Invitrogen). The protein concentration was determined using Bradford reagent (Biorad). A total of 20 μg of protein were loaded, except for PAR, Phospho ATM and Phospho DNA-PK/PRKDC western blots, where 40 μg were loaded. Tumor tissue lysates were prepared similarly with the exception of tissue homogenization by using an electric homogenizer for 30 secs after addition of the lysis buffer. Primary antibodies used for western blotting were total AKT (9272), Cleaved Caspace 3 (9661), total ERK (4695), Phospho AKT Ser473 (4058), Phospho ERK Thr202/Tyr204 (9106), Phospho-Histone H2AX Ser139 (2577), PTEN (9559) from Cell Signaling. Phospho ATM Ser1981 (2152-1), Phospho DNA-PK/PRKDC Ser2056 (3892-1) from Epitomics, Inc. CD31 (ab28364), Actin (ab6276), INPP4B (ab81269) from Abcam; pADPr (sc56198) from Santacruz Biotechnology; and Ki-67 (RM-9106) was purchased from Thermo Scientific.

[3] = test system: phospho-AKT (S473); test: AKT phosphorylation in tumor tissue (immunohistochemistry / immunoblot); type: in vivo, mouse; settings: for AKT phosphorylation in tumor tissue lysates: immunoblot, tumor taken 2-3 hours after last dose, Compound A 30 mg/kg/day, Compound B 50 mg/kg/day
Method: All animal experiments were conducted in accordance with IACUC-approved protocols at Beth Israel Deaconess Medical Center, Boston, and at the University of Vall d'Hebron, Barcelona, Spain. Female MMTV-CreBRCA1^f/fp53+/− mice were obtained by breeding BRCA1 conditional knockout mice from the NIH repository (01XC8, strain C57BL/6) (Xu et al. Nat. Genet., 22: 37-43, 1999); with MMTV-Cre (Jackson Laboratory B6129-TgN(MMTV-Cre)4Mam) (Wagner et al. Nucleic Acids Res., 25: 4323-4330, 1997) and p53 knockout (Taconic Farms, P53N12-M, C57BL/6) (Donehower et al. Nature, 356: 215-221, 1992). At the time of the study, mice had been inbred for 4 years (>7 generations). The floxed or wild type status of Brca1, the presence of the MMTV-Cre transgene and the p53 heterozygosity were determined by PCR. Mice were examined for the occurrence of tumors twice weekly. When tumormetrics were performed, the length and width of the tumor was determined using calipers, and the tumor volume was determined (width^2×length/2). Tumor volume was used as a measure of growth and was recorded as ratio to tumor volume at diagnosis. Tumor doubling times were calculated using the functions of the best fit curves for all data points in each treatment modality. 5-(2,6-dimorpholinopyrimidin-4-yl)-4-(trifluoromethyl)pyridin-2-amine (Compound A) was resuspended in 5% Methylcellulose solution (Fluka) and administered via oral gavage at 50 mg/kg/day or 30 mg/kg/day. […]
Cells were treated with mock, 5-(2,6-dimorpholinopyrimidin-4-yl)-4-(trifluoromethyl)pyridin-2-amine (Compound A), 4-[[3-[4-(cyclopropanecarbonyl)piperazine-1-carbonyl]-4-fluorophenyl]methyl]-2H-phthalazin-1-one (Compound B), KU-55933, or the combination and lysed in cell lysis buffer (9803, Cell Signaling) as per the manufacturer's instructions. […] The protein concentration was determined using Bradford reagent (Biorad). […]

SMILES | growth of patient-derived tumor (relative tumor volume) [1] | cleaved caspase 3 (CC3), apoptosis marker ([2]; 24 hours) | overall poly-ADP-ribosylation (PAR) ([2]; 24 hours, Compound A 1 μM) | H2AX phosphorylation on Serine 139 (γH2AX) ([2]; 24 hours, Compound A 1 μM, Compound B 10 μM in combination) | activation status of EGFR/MAPK pathways [2] | phosphorylation of AKT ([2]; increasing concentrations, 24 hours) | phosphorylation of AKT at Ser-473 in tumors ([3]; IHC of biopsies before and after two weeks of treatment) | AKT phosphorylation in tumor tissue lysates [3]
Nc1cc(C(F)(F)F)c(-c2cc(N3CCOCC3)nc(N3CCOCC3)n2)cn1 [Compound A, 5-(2,6-dimorpholinopyrimidin-4-yl)-4-(trifluoromethyl)pyridin-2-amine] | modestly attenuated | remained negative | dose dependent increase | increased with increasing concentrations | induced a compensatory activation | diminishing phosphorylation | strongly decreased | potently reduced
O=C(c1cc(Cc2n[nH]c(=O)c3ccccc23)ccc1F)N1CCN(C(=O)C2CC2)CC1 [Compound B, 4-[[3-[4-(cyclopropanecarbonyl)piperazine-1-carbonyl]-4-fluorophenyl]methyl]-2H-phthalazin-1-one, reference compound] | modestly attenuated |  | completely blocked |  | did not have a discernible effect |  |  | induction of AKT phosphorylation

From patent publication US20140235630A1, “COMPOSITIONS AND METHODS FOR THE TREATMENT OF PROLIFERATIVE DISEASES” (Beth Israel Deaconess Medical Center, Inc., priority 2011, published 2014)
